From patent US4021557A, “11-Aminoalkyl-pyridobenzodiazepinones and salts thereof” (Boehringer Ingelheim GmbH, priority 1974, dated 1977)

Columns and labels:
[1] = tested on: acetylcholine-induced bronchospasm; experiment: Antagonism to acetylcholine-provoked bronchospasm in anesthetized guinea pigs (Konzett and Rossler), i.v.; antiasthmatic / bronchospasmolytic activity; type: in vivo; details: guinea pig; for ED50: Cavia porcellus, iv, 20γ acetylcholine per kg i.v., graphic extrapolation, read-out: Bronchospasmolytic ED50 against acetylcholine-induced bronchospasm
Description: The antiasthmatic activity was tested as the antagonism to bronchospasm provoked by intravenous administration of 20γ of acetylcholine per kg body weight in anesthetized guinea pigs (according to method of Konzett and Rossler). From the average percentage decrease of the bronchospasm produced by administering various doses of the compounds of the […] invention an ED50 was determined by graphic extrapolation. The compounds were administered intravenously.

[2] = Acute toxicity after i.v. administration in NMRI-mice (Litchfield and Wilcoxon); details: mouse, in vivo, iv, both sexes, deaths within 14 days, read-out: LD50 in the mouse after i.v. application
Description: The acute toxicity was determined with NMRI-mice of both sexes (body weight 20 gm) after intravenous administration of the compound. 0.1 ml of a 0.9% sodium chloride solution per 10gm of animal was used as the vehicle.

heart rate = experiment: Effect on heart rate of the anesthetized cat after intravenous administration; type: in vivo; parameters: key to type of the reaction (heart rate): --: decrease in heart rate; details: i.v.; for ED10 (dose leading to a 10% alteration of the heart rate) / ED25 (dose leading to a 25% alteration of the heart rate): graphic extrapolation; for type of the reaction (heart rate): tested dosage range 250 - 4,000 γ/kg (A 12.5 - 16,000; W 125 - 4,000)
Description: The effect on the heart rate was tested on cats of both sexes (body weight between 2.3 and 3.5 kg) under chloralose-urethane anesthesia. The heart rate was continuously registered by means of a Grass-tachograph 7P4, controlled by the R-wave of the electrocardiogram. The test compound was injected through a catheter introduced into the vena femoralis.

Structure (SMILES) | ED50 [1] [mg/kg] | Average duration of effective action in the ED50 range [1] [min] | LD50 at 336 h [2] [mg/kg] | ED10 (dose leading to a 10% alteration of the heart rate) (heart rate) | ED25 (dose leading to a 25% alteration of the heart rate) (heart rate) | type of the reaction (heart rate) (heart rate)
CC(C)NCCCN1c2ccccc2N(C)C(=O)c2cccnc21.Cl [F, 6,11-dihydro-11-(3'-isopropylamino-n-propyl)-6-methyl-5H-pyrido[2,3-b][1,5]benzodiazepin-5one hydrochloride] | 0.172 | > 110 | 43.5 |  |  | 
CN1C(=O)c2ccccc2N(CCCN2CCCCCC2)c2ncccc21.Cl [W, 5,11-dihydro-11-(3'-hexamethyleneimino-n-propyl)-5-methyl-6H-pyrido[2,3-b][1,4]benzodiazepin-6-one hydrochloride] | 0.215 | > 40 | 13.4 | 1,200 γ/kg | > 4,000 γ/kg | --
CCNCCCN1c2ccccc2N(C)C(=O)c2cccnc21.Cl [E, 11-(3'-ethylamino-n-propyl)-6,11-dihydro-6-methyl-5H-pyrido[2,3-b][1,5]benzodiazepin-5-one hydrochloride] | 0.068 | > 90 | 56.1 | 1,050 γ/kg | > 4,000 γ/kg | --
CCN(CC)CCN1c2ccccc2C(=O)N(C)c2cccnc21.Cl [P, 11-(2'-diethylamino-ethyl)-5,11-dihydro-5-methyl-6H-pyrido[2,3-b][1,4]benzodiazepin-6-one hydrochloride] | 0.21 | 110 |  |  |  | 
CCN(CC)CCN1c2ccccc2N(C)C(=O)c2cccnc21.Cl [G, 11-(2'-diethylamino-ethyl)-6,11-dihydro-6-methyl-5H-pyrido[2,3-b][1,5]benzodiazepin-5-one hydrochloride] | 0.044 | 50 | 27.1 |  |  | 
CN1C(=O)c2ccccc2N(CCCN2CCCCC2)c2ncccc21.Cl [V, 5,11-dihydro-5-methyl-11-(3'-piperidino-n-propyl)-6H-pyrido[2,3-b][1,4]benzodiazepin-6-one hydrochloride] | 0.18 | > 110 | 13.4 | 1,100 γ/kg | > 4,000 γ/kg | --
CN1C(=O)c2ccccc2N(CCCN2CCCC2)c2ncccc21.Cl [U, 5,11-dihydro-5-methyl-11-(3-pyrrolidino-n-propyl)-6H-pyrido[2,3-b][1,4]benzodiazepin-6-one hydrochloride] | 0.105 | > 50 | 22.9 | 2,300 γ/kg | > 4,000 γ/kg | --
CC(C)N(CCN1c2ccccc2C(=O)N(C)c2cccnc21)C(C)C.Cl [Q, 5,11-dihydro-11-(2'-diisopropylamino-ethyl)-5-methyl-6H-pyrido[2,3-b][1,4]benzodiazepin-6-one hydrochloride] | 0.053 | > 50 | 27 |  |  | 
CN1C(=O)c2cccnc2N(CCCN2CCCCC2)c2ccccc21.Cl [M, 6,11-dihydro-6-methyl-11-(3'-piperidino-n-propyl)-5H-pyrido[2,3-b][1,5]benzodiazepin-5-one hydrochloride] | 0.063 | > 60 | 10.6 | 1,400 γ/kg | > 4,000 γ/kg | --
CCN(CC)CCCN1c2ccccc2C(=O)N(C)c2cccnc21.Cl [S, 5,11-dihydro-11-(3'-diethylamino-n-propyl)-5-methyl-6H-pyrido[2,3-b][1,4]benzodiazepin-6-one hydrochloride] | 0.123 | > 110 |  |  |  | 
CCCN(CCC)CCCN1c2ccccc2N(C)C(=O)c2cccnc21.Cl [H, 6,11-dihydro-11-(3'-di-n-propylamino-n-propyl)-6-methyl-5H-pyrido[2,3-b][1,5]benzodiazepin-5-one hydrochloride] | 0.095 | > 70 | 21.7 |  |  | 
CC(C)N(CCN1c2ccccc2N(C)C(=O)c2cccnc21)C(C)C.Cl [I, 6,11-dihydro-11-(2'-diisopropylamino-ethyl)-6-methyl-5H-pyrido[2,3-b][1,5]benzodiazepin-5-one hydrochloride] | 0.018 | 40 | 30.3 | 1,300 γ/kg | > 4,000 γ/kg | --
CN1C(=O)c2cccnc2N(CCCN2CCCCCC2)c2ccccc21.Cl [N, 6,11-dihydro-11-(3'-hexamethyleneimino-n-propyl)-6-methyl-5H-pyrido[2,3-b][1,5]benzodiazepin-5-one hydrochloride] | 0.064 | > 50 | 12.7 |  |  | 
CN(C)CCN1c2ccccc2N(C)C(=O)c2cccnc21.Cl [B, 6,11-dihydro-11-(2'-dimethylamino-ethyl)-6-methyl-5H-pyrido[2,3-b][1,5]benzodiazepin-5-one hydrochloride] | 0.148 | > 110 | 25.8 |  |  | 
CN(C)CCCN1c2ccccc2C(=O)N(C)c2cccnc21 [R, 5,11-dihydro-11-(3'-dimethylamino-n-propyl)-5-methyl-6H-pyrido[2,3-b][1,4]benzodiazepin-6-one] | 0.19 | > 50 |  |  |  | 
CNCCCN1c2ccccc2N(C)C(=O)c2cccnc21.Cl [D, 6,11-dihydro-6-methyl-11-(3'-methylamino-n-propyl)-5H-pyrido[2,3-b][1,5]benzodiazepin-5-one hydrochloride] | 0.155 | 45 | 43.2 |  |  | 
